Values quoted from earlier work, collected in patent US8637078B2, “Bilayer tablet comprising telmisartan and diuretic” (Boehringer Ingelheim International GmbH, priority 2005, dated 2014).

What was measured:
[1] = both polymorphic forms A and B; physiological pH range of the gastrointestinal tract, pH 1 to 7
[2] = composition with 3 to 50 wt. % telmisartan in dissolving matrix (basic agent, surfactant or emulsifier, water-soluble diluent); known from WO 2004/028505

CCCc1nc2c(C)cc(-c3nc4ccccc4n3C)cc2n1Cc1ccc(-c2ccccc2C(=O)O)cc1 [telmisartan, 4′-[2-n-propyl-4-methyl-6-(1-methylbenzimidazol-2-yl)-benzimidazol-1-ylmethyl]-biphenyl-2-carboxylic acid]
solubility in aqueous systems [1]: very poor solubility
solubility raised by a factor [2]: several hundred
